{"source": "patent US7989466B2", "about": "“Methods to inhibit or augment an inflammatory response” (Cambridge Enterprise Limited, priority 1999, dated 2011)", "key": {"[1]": {"system": "chemokine receptors on THP-1 cells", "assay": "Binding to chemokine receptors on THP-1 cells", "set-up": "species or system human", "protocol": "In general, specific binding is calculated as the amount of labeled agent bound in the absence of cold competitor minus the amount of labeled agent bound in the presence of cold competitor. The amount of specific binding in the presence of varied amounts of cold competitor can be used to determine the association constant for the agent, as well as the number of binding sites on the cell for the agent, using, for example, Scatchard Analysis. The agent may be labeled by radiolabeling (e.g., iodination) or with a suitable biochemical tag (e.g., biotin) or by addition of a photoactivatable crosslinking group. Agents with an association constant lower than 100 μM (i.e., which bind more strongly than an agent with an association constant of 100 μM) and which have at least about 2,500, preferably at least about 10,000, and more preferably greater than 25,000, binding sites per cell for at least one cell type which expresses a chemokine receptor, fall under the scope of this invention. THP-1 cells have at least about 5,000 MCP-1 receptors/cell.\nFor example, monocytes are suspended in RPMI 1640 medium without bicarbonate containing 0.2% bovine serum albumin and 0.1% azide. Radiolabeled chemokine peptide is incubated with 1-2×10^6 cells, e.g., THP-1 cells, in the presence or absence of increasing concentrations of unlabeled chemokine (MCP-1, MCP-3, MCP-4, RANTES or MIP-1α) for 15 minutes at 37° C. in a 96-well plate in a final volume of 0.2 ml (e.g., PBS+0.5% FCS). After the incubation, 0.5 ml of ice-cold wash buffer (20 mM Tris, 0.5 M NaCl, pH 7.4) is added, and cells are collected onto a polyethyleneimine-treated Whatman GF/C filter using a Brandall cell harvester. Filters are washed with 4 ml of cold wash buffer, and the radioactivity bound to the filters is counted in a γ-counter.\nFor Scatchard analysis, the absorbance readings at 450 nm were calibrated, by reference to a standard curve in which known amounts of labeled peptide were coupled to derivatized sepharose beads (activated thiol-sepharose 4B; Sigma T8512) via the cysteine residue in each peptide. Briefly, known amounts (1 fmol to 1 pmol) of biotin-labeled peptide were incubated with 1 mg of activated thiol-sepharose beads in 100 μl of PBS at 37° C. for 1 hour. Free activated thiols were then blocked by addition of cysteine to a final concentration of 10 mM. The peptide-conjugated beads were then washed 5 times in PBS and treated exactly as for the cells described above. The absorbance at 450 nm obtained when a known amount of peptide was coupled to the beads was used to construct a standard curve which was used to convert the absorbance readings obtained with cells into number of molecules of labeled peptide which had bound."}, "[2]": {"molecular_target": "T1, Duffy Antigen Receptor for Chemokines (DARC) (Homo sapiens, UniProt Q16570)", "T1 sequence (Q16570 1-336)": "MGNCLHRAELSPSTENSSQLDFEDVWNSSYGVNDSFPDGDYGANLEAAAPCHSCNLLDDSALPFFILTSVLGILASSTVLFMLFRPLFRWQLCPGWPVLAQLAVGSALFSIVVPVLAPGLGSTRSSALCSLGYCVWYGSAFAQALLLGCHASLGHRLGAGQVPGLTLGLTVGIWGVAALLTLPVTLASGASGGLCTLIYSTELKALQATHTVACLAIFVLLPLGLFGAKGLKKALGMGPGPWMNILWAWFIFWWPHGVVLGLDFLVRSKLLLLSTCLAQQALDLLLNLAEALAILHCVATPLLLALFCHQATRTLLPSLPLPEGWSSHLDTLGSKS", "assay": "DARC binding: competition with 125I-MCP-1 on red blood cells", "settings": "for DUFFY SELECTIVITY, peptide 2 family: ka for binding to red blood cells divided by the ka for binding THP-1 cells"}}, "note": "Where two headings read alike, the source gives them in different places. Marks after values point to notes of the source that are not given here. Positions of bridges follow the written chain, without caps; N, C: chain ends. Non-standard residues stand in square brackets, D forms with d. Residues, ends and D or L forms follow the SMILES beside them. No end group written: not given here.", "data": [{"compound": "CC[C@@H](C)[C@H]1NC(=O)[C@@H](CCC(N)=O)NC(=O)[C@H](N)CSSC[C@H](C(N)=O)NC(=O)[C@@H](CC(C)C)NC(=O)[C@@H](CC(=O)O)NC(=O)[C@H]2CCCN2C(=O)[C@@H](CCCCN)NC(=O)[C@@H](CCC(N)=O)NC(=O)[C@@H](CCCCN)NC(=O)[C@@H](Cc2c[nH]c3ccccc23)NC1=O", "note": "(H-[dC][dQ][dI][dW][dK][dQ][dK][dP][dD][dL][dC]-NH2; disulfide 1-11; N-terminus assumed)", "values": [{"measurement": "association constant for chemokine receptors on THP-1 cells", "setting": "[1]", "value": "100 to 500", "unit": "nM"}, {"measurement": "number of binding sites per cell, THP-1 cells", "setting": "[1]", "value": "about 150,000 per cell"}, {"measurement": "Kd", "setting": "[2]", "value": 90, "unit": "µM"}]}, {"compound": "NCCCC[C@H](NC(=O)[C@H](CCC(N)=O)NC(=O)[C@@H](N)CCCCN)C(=O)O", "note": "[KQK]", "values": [{"measurement": "number of binding sites per cell, THP-1 cells", "setting": "[1]", "value": "about 15,000 per cell"}, {"measurement": "association constant for chemokine receptors on THP-1 cells", "setting": "[1]; range printed with mixed units", "value": "500 nM-1 μM"}]}, {"compound": "EICADPKQKWVQ [peptide 3(1-12)[MCP-1]]", "values": [{"measurement": "number of binding sites per cell, THP-1 cells", "setting": "[1]", "value": 1000, "unit": "per cell"}, {"measurement": "association constant (ka) for binding to THP-1 cells", "setting": "[1]; listed as Peptide 3", "value": "about 10 μM"}, {"measurement": "association constant (ka) for binding to THP-1 cells", "setting": "[1]; listed as peptide 3", "value": 7, "unit": "µM"}, {"measurement": "Kd", "setting": "[1]; read-out: affinity constant for binding to THP-1 cells in the presence of 100 μM peptide 2", "value": 8, "unit": "µM"}, {"measurement": "DUFFY SELECTIVITY (DARC specificity ratio)", "setting": "[2]; estimated ka for binding to red blood cells divided by average inhibitory ED50 versus each of the chemokines", "value": 1.0}]}, {"compound": "SYRRITSSKCPKEAV [peptide 2(1-15)[MCP-1]]", "values": [{"measurement": "AVERAGE ED50, peptide 2 family: estimated ka for binding to THP-1 cells", "setting": "[1]", "value": "2^e μM"}, {"measurement": "association constant (ka) for binding to THP-1 cells", "setting": "[1]", "value": 2, "unit": "µM"}, {"measurement": "number of binding sites per cell, THP-1 cells", "setting": "[1]", "value": "130,000 per cell"}, {"measurement": "association constant for chemokine receptors on THP-1 cells", "setting": "[1]; listed as peptide 2", "value": 250, "unit": "nM"}, {"measurement": "association constant for chemokine receptors on THP-1 cells", "setting": "[1]; listed as peptide 2(1-15)[MCP1]", "value": 300, "unit": "nM"}, {"measurement": "Kd", "setting": "[2]; association (affinity) constant for DARC, red blood cells", "value": 100, "unit": "µM"}, {"measurement": "Kd", "setting": "[2]; association constant / affinity for DARC, red blood cells", "value": "< 0.5", "unit": "µM"}, {"measurement": "DUFFY SELECTIVITY, peptide 2 family", "setting": "[2]", "value": "0.1-0.2"}, {"measurement": "DUFFY SELECTIVITY, peptide 2 family", "setting": "[2]; listed as Pep2[MCP1]", "value": "0.18^d"}]}]}
